Test results from patent EP4745135A1 (Gluetacs Therapeutics (Shanghai) Co., Ltd., priority 2023, dated 2025).

Experiments:
CK1α = target: T1, CK1α (Homo sapiens, UniProt P48729+Q96SW2); test: Western blot, degradation of substrate protein in hPBMCs; type: cell-based
T1 construct: effects of the compounds of the present disclosure on the expression of target proteins in cells; endogenous in cells; host or cells: human PBMCs (Milecell Biotechnologies)

IKZF1 = target: T2, IKZF1 (Homo sapiens, UniProt Q13422+Q96SW2); test: as above; type: cell-based
T2 construct: effects of the compounds of the present disclosure on the expression of target proteins in cells; endogenous in cells; host or cells: human PBMCs (Milecell Biotechnologies)
T2 sequence (Q13422 whole entry): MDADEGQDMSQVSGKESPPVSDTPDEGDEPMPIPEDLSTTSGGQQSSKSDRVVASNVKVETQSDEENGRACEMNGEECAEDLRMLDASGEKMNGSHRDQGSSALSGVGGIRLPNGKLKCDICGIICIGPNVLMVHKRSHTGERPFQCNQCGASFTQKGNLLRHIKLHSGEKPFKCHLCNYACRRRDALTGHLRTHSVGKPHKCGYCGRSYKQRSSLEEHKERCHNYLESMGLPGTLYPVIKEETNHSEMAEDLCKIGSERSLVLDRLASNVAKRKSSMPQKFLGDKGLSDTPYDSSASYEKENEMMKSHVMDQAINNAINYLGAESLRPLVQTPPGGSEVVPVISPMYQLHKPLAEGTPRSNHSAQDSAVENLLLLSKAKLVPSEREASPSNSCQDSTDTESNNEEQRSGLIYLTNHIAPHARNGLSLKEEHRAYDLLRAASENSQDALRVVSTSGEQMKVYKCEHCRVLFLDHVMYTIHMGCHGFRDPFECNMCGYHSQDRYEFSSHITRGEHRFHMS
T2 sequence (Q96SW2 whole entry): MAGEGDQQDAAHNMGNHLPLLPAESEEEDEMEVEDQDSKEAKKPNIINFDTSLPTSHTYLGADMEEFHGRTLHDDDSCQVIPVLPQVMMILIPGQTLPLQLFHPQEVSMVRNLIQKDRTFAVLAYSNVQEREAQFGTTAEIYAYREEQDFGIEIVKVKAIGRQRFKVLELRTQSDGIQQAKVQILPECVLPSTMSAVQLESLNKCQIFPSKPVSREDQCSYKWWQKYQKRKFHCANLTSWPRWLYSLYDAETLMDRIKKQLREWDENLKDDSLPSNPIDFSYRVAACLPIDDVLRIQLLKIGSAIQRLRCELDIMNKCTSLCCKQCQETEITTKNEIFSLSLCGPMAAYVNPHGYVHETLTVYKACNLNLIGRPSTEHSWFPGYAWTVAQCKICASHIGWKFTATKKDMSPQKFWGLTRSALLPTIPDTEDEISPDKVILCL
T2 sequence (Q16531 whole entry partner): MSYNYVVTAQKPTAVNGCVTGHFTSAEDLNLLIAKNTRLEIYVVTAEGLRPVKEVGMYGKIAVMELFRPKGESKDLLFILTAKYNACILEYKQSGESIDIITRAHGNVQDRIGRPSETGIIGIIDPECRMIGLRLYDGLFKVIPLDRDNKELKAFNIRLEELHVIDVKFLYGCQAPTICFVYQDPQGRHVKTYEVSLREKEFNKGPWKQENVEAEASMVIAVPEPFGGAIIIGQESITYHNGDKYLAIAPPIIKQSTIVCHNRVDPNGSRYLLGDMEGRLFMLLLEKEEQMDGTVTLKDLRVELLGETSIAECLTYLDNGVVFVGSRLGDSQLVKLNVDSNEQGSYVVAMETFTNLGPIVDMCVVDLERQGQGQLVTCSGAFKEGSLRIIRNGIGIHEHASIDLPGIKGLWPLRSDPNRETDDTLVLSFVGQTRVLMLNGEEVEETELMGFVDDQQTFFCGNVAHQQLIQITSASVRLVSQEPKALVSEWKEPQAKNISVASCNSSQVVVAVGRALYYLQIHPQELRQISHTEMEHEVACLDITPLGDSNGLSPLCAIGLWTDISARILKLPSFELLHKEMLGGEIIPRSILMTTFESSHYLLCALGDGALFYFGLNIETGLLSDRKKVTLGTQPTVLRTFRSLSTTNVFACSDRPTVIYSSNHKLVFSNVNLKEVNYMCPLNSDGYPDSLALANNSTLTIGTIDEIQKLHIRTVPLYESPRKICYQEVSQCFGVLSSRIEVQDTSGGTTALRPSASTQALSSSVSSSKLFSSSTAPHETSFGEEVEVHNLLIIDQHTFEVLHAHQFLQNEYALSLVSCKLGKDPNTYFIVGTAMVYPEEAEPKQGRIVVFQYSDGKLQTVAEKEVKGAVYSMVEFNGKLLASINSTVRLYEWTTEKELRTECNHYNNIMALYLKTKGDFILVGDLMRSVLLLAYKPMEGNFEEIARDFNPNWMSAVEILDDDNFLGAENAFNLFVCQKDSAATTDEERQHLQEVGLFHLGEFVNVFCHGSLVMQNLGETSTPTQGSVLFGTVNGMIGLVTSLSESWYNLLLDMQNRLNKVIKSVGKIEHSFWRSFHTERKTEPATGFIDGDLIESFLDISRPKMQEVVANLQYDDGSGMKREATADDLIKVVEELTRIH

IKZF2 = target: T3, IKZF2 (Homo sapiens, UniProt Q96SW2+Q9UKS7); test: as above; type: cell-based
T3 construct: effects of the compounds of the present disclosure on the expression of target proteins in cells; endogenous in cells; host or cells: human PBMCs (Milecell Biotechnologies)
T3 sequence (Q9UKS7 whole entry): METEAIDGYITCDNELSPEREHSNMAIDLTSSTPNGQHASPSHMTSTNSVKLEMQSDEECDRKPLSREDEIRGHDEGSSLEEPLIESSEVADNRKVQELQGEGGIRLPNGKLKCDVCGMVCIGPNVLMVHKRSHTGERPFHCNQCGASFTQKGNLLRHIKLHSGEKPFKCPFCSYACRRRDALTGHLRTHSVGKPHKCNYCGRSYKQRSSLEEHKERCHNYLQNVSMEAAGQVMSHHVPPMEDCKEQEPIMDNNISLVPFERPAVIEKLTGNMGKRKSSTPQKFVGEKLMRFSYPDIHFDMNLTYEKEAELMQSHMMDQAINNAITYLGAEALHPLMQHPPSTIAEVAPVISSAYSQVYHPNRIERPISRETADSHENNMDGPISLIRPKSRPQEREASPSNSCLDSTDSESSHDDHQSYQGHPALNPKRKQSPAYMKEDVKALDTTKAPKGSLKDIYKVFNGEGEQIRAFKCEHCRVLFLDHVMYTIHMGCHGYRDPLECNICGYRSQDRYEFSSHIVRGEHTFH
T3 sequence (Q96SW2 whole entry): as the sequence (Q96SW2 whole entry) above
T3 sequence (Q16531 whole entry partner): as the sequence (Q16531 whole entry partner) above

IKZF3 = target: T4, IKZF3 (Homo sapiens, UniProt Q96SW2+Q9UKT9); test: as above; type: cell-based
T4 construct: effects of the compounds of the present disclosure on the expression of target proteins in cells; endogenous in cells; host or cells: human PBMCs (Milecell Biotechnologies)
T4 sequence (Q9UKT9 whole entry): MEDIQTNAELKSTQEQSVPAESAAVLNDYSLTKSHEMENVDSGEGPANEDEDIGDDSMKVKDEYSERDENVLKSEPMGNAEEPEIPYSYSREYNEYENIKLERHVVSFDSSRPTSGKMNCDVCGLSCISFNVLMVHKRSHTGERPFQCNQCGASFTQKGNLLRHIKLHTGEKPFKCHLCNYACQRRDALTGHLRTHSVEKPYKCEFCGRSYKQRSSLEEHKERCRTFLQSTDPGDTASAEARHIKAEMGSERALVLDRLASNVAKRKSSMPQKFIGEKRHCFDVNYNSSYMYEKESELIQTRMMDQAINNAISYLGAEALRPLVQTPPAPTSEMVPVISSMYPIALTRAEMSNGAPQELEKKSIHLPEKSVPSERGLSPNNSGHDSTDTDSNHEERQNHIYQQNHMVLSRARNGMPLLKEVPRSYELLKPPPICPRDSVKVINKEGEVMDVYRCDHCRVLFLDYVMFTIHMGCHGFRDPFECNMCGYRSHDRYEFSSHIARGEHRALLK
T4 sequence (Q96SW2 whole entry): as the sequence (Q96SW2 whole entry) above
T4 sequence (Q16531 whole entry partner): as the sequence (Q16531 whole entry partner) above

WEE1 = target: T5, WEE1 (Homo sapiens, UniProt P30291+Q96SW2); test: as above; type: cell-based
T5 construct: effects of the compounds of the present disclosure on the expression of target proteins in cells; endogenous in cells; host or cells: human PBMCs (Milecell Biotechnologies)
T5 sequence (P30291 whole entry): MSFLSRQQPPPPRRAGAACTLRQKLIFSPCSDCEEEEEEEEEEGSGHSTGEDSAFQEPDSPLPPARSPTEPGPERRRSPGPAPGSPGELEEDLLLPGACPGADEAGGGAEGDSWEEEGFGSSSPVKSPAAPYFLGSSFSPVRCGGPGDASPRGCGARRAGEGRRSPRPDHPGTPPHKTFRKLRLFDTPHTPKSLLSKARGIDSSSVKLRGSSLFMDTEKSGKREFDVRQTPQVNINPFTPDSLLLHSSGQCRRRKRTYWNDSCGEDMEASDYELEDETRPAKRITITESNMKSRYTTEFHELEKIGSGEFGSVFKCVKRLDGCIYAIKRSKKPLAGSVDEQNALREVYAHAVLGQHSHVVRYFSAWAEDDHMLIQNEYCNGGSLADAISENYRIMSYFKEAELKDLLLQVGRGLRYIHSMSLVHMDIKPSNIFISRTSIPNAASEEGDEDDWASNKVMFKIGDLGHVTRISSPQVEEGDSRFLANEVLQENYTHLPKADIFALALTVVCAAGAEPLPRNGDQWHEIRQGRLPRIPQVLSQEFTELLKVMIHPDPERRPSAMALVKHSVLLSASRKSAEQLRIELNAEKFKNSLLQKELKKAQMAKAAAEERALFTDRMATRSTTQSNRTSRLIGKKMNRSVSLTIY
T5 sequence (Q96SW2 whole entry): as the sequence (Q96SW2 whole entry) above
T5 sequence (Q16531 whole entry partner): as the sequence (Q16531 whole entry partner) above

GSPT1 = test: as above; type: cell-based, Human
[1] = target: T6, human Cereblon WT GST-tagged protein (Homo sapiens, UniProt Q96SW2); test: CRBN-binding affinity, HTRF (CEREBLON BINDING kit); conditions: for inhibition at 0.5 µM: read-out: Inhibition Rate at 0.5 µM (%); for inhibition at 2 µM: read-out: Inhibition Rate at 2 µM (%)
T6 construct: purchased CISBIO 64BDCRBNPEH
T6 sequence (Q96SW2 whole entry): as the sequence (Q96SW2 whole entry) above

[2] = Western blot, 24 hours of compound treatment, compounds tested at 50 nM and 500 nM (concentration for the table not stated)
[3] = 24 hours treatment, compounds at 50 nM and 500 nM (concentration behind the class not stated)

T1 sequence (P48729 whole entry): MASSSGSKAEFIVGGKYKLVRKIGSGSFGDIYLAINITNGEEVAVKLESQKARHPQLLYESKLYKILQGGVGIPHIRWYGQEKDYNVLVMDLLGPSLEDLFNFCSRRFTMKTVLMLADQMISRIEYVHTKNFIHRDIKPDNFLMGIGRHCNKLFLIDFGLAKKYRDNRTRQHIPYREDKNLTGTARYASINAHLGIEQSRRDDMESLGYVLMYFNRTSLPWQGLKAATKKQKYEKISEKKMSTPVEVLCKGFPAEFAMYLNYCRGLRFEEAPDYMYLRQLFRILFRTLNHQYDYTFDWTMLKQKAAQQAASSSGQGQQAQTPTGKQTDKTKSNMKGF
T1 sequence (Q96SW2 whole entry): as the sequence (Q96SW2 whole entry) above
T1 sequence (Q16531 whole entry partner): as the sequence (Q16531 whole entry partner) above

| Structure (SMILES) | CK1α substrate protein remaining % (CK1α; [2]) | IKZF 1 substrate protein remaining % (IKZF1; [2]) | IKZF2 substrate protein remaining % (IKZF2; [2]) | IKZF3 substrate protein remaining % (IKZF3; [2]) | Wee1 substrate protein remaining % (WEE1; [2]) | GSPT1 substrate protein remaining % (GSPT1; [2]) | inhibition at 0.5 µM [1] [%] | inhibition at 2 µM [1] [%] | CK1α substrate protein remaining % (CK1α; [3]) | IKZF 1 substrate protein remaining % (IKZF1; [3]) | IKZF2 substrate protein remaining % (IKZF2; [3]) | IKZF3 substrate protein remaining % (IKZF3; [3]) | Wee1 substrate protein remaining % (WEE1; [3]) | GSPT1 substrate protein remaining % (GSPT1; [3]) |
| --- | --- | --- | --- | --- | --- | --- | --- | --- | --- | --- | --- | --- | --- | --- |
| O=C1CCC(N2Cc3c(CN4CCC(n5cnc6cc(F)ccc65)CC4)cccc3C2=S)C(=O)N1 (stereo not drawn) [GT-08842, 3-(4-((4-(5-fluoro-1H-benzo[d]imidazol-1-yl)piperidin-1-yl)methyl)-1-thioxoisoindolin-2-yl)piperidine-2,6-dione] | B (80%< substrate protein remaining %≤ 100%) | B (80%< substrate protein remaining %≤ 100%) | B (80%< substrate protein remaining %≤ 100%) | B (80%< substrate protein remaining %≤ 100%) | A (0% ≤ substrate protein remaining % ≤ 80%) | B (80%< substrate protein remaining %≤ 100%) | 40 to 53 | 80 to 100 | – | – | – | – | – | – |
| Cn1cc(C2CCN(Cc3cccc4c3CN(C3CCC(=O)NC3=O)C4=S)CC2)c2ccc(F)cc21 (stereo not drawn) [GT-08844, 3-(4-((4-(6-fluoro-1-methyl-1H-indol-3-yl)piperidin-1-yl)methyl)-1-thioxoisoindolin-2-yl)piperidine-2,6-dione] | B (80%< substrate protein remaining %≤ 100%) | B (80%< substrate protein remaining %≤ 100%) | B (80%< substrate protein remaining %≤ 100%) | B (80%< substrate protein remaining %≤ 100%) | A (0% ≤ substrate protein remaining % ≤ 80%) | B (80%< substrate protein remaining %≤ 100%) | 40 to 53 | 60 to 80 | – | – | – | – | – | – |
| O=C1CCC(N2Cc3c(CN4CCC(c5c[nH]c6ncccc56)CC4)cccc3C2=S)C(=O)N1 (stereo not drawn) [GT-08848, 3-(4-((4-(1H-pyrrolo[2,3-b]pyridin-3-yl)piperidin-1-yl)methyl)-1-thioxoisoindolin-2-yl)piperidine-2,6-dione] | B (80%< substrate protein remaining %≤ 100%) | B (80%< substrate protein remaining %≤ 100%) | B (80%< substrate protein remaining %≤ 100%) | B (80%< substrate protein remaining %≤ 100%) | A (0% ≤ substrate protein remaining % ≤ 80%) | B (80%< substrate protein remaining %≤ 100%) | 30 to 40 | 80 to 100 | – | – | – | – | – | – |
| O=C1CCC(N2Cc3c(CN4CCC(c5n[nH]c6cc(F)ccc56)CC4)cccc3C2=S)C(=O)N1 (stereo not drawn) [GT-08849, 3-(4-((4-(6-fluoro-1H-indazol-3-yl)piperidin-1-yl)methyl)-1-thioxoisoindolin-2-yl)piperidine-2,6-dione] | B (80%< substrate protein remaining %≤ 100%) | B (80%< substrate protein remaining %≤ 100%) | B (80%< substrate protein remaining %≤ 100%) | B (80%< substrate protein remaining %≤ 100%) | A (0% ≤ substrate protein remaining % ≤ 80%) | A (0% ≤ substrate protein remaining % ≤ 80%) | 60 to 80 | 80 to 100 | – | – | – | – | – | – |
| O=C1CCC(N2Cc3c(CN4CCC(N5CCCc6cc(F)ccc65)CC4)cccc3C2=S)C(=O)N1 (stereo not drawn) [GT-08851, 3-(4-((4-(6-fluoro-3,4-dihydroquinolin-1(2H)-yl)piperidin-1-yl)methyl)-1-thioxoisoindolin-2-yl)piperidine-2,6-dione] | B (80%< substrate protein remaining %≤ 100%) | B (80%< substrate protein remaining %≤ 100%) | B (80%< substrate protein remaining %≤ 100%) | B (80%< substrate protein remaining %≤ 100%) | A (0% ≤ substrate protein remaining % ≤ 80%) | A (0% ≤ substrate protein remaining % ≤ 80%) | 40 to 53 | 60 to 80 | – | – | – | – | – | – |
| O=C1CCC(N2Cc3c(CN4CCC(N5CCOc6cc(F)ccc65)CC4)cccc3C2=S)C(=O)N1 (stereo not drawn) [GT-08852, 3-(4-((4-(7-fluoro-2,3-dihydro-4H-benzo[b][1,4]oxazin-4-yl)piperidin-1-yl)methyl)-1-thioxoisoindolin-2-yl)piperidine-2,6-dione] | – | – | – | – | – | – | 40 to 53 | 80 to 100 | B (80%< substrate protein remaining %≤ 100%) | B (80%< substrate protein remaining %≤ 100%) | B (80%< substrate protein remaining %≤ 100%) | B (80%< substrate protein remaining %≤ 100%) | A (0% ≤ substrate protein remaining % ≤ 80%) | B (80%< substrate protein remaining %≤ 100%) |
| O=C1CCC(N2Cc3c(CN4CCC(c5cccc6c(F)cccc56)CC4)cccc3C2=S)C(=O)N1 (stereo not drawn) [GT-08855, 3-(4-((4-(5-fluoronaphthalen-1-yl)piperidin-1-yl)methyl)-1-thioxoisoindolin-2-yl)piperidine-2,6-dione] | – | – | – | – | – | – | 30 to 40 | 60 to 80 | B (80%< substrate protein remaining %≤ 100%) | B (80%< substrate protein remaining %≤ 100%) | B (80%< substrate protein remaining %≤ 100%) | B (80%< substrate protein remaining %≤ 100%) | A (0% ≤ substrate protein remaining % ≤ 80%) | A (0% ≤ substrate protein remaining % ≤ 80%) |
| O=C1CCC(N2Cc3c(CN4CCC(c5cccc6cnccc56)CC4)cccc3C2=S)C(=O)N1 (stereo not drawn) [GT-08857, 3-(4-((4-(isoquinolin-5-yl)piperidin-1-yl)methyl)-1-thioxoisoindolin-2-yl)piperidine-2,6-dione] | – | – | – | – | – | – | 60 to 80 | 80 to 100 | B (80%< substrate protein remaining %≤ 100%) | B (80%< substrate protein remaining %≤ 100%) | B (80%< substrate protein remaining %≤ 100%) | A (0% ≤ substrate protein remaining % ≤ 80%) | A (0% ≤ substrate protein remaining % ≤ 80%) | B (80%< substrate protein remaining %≤ 100%) |
| O=C1CCC(N2Cc3c(CN4CCC(c5ccnc6cc(F)ccc56)CC4)cccc3C2=S)C(=O)N1 (stereo not drawn) [GT-08858, 3-(4-((4-(7-fluoroquinolin-4-yl)piperidin-1-yl)methyl)-1-thioxoisoindolin-2-yl)piperidine-2,6-dione] | – | – | – | – | – | – | 60 to 80 | 80 to 100 | B (80%< substrate protein remaining %≤ 100%) | B (80%< substrate protein remaining %≤ 100%) | B (80%< substrate protein remaining %≤ 100%) | B (80%< substrate protein remaining %≤ 100%) | A (0% ≤ substrate protein remaining % ≤ 80%) | B (80%< substrate protein remaining %≤ 100%) |
| O=C1CCC(N2Cc3c(CN4CC(c5ccnc6cc(F)ccc56)C4)cccc3C2=S)C(=O)N1 (stereo not drawn) [GT-08860, 3-(4-((3-(7-fluoroquinolin-4-yl)azetidin-1-yl)methyl)-1-thioxoisoindolin-2-yl)piperidine-2,6-dione] | – | – | – | – | – | – | 60 to 80 | 80 to 100 | B (80%< substrate protein remaining %≤ 100%) | B (80%< substrate protein remaining %≤ 100%) | B (80%< substrate protein remaining %≤ 100%) | B (80%< substrate protein remaining %≤ 100%) | A (0% ≤ substrate protein remaining % ≤ 80%) | A (0% ≤ substrate protein remaining % ≤ 80%) |
| O=C1CCC(N2Cc3c(CN4CCN(c5ncnc6sccc56)CC4)cccc3C2=S)C(=O)N1 (stereo not drawn) [GT-08912, 3-(4-((4-(thieno[2,3-d]pyrimidin-4-yl)piperazin-1-yl)methyl)-1-thioxoisoindolin-2-yl)piperidine-2,6-dione] | – | – | – | – | – | – | 60 to 80 | 80 to 100 | B (80%< substrate protein remaining %≤ 100%) | B (80%< substrate protein remaining %≤ 100%) | B (80%< substrate protein remaining %≤ 100%) | B (80%< substrate protein remaining %≤ 100%) | A (0% ≤ substrate protein remaining % ≤ 80%) | B (80%< substrate protein remaining %≤ 100%) |
| Cc1csc2ncnc(N3CCN(Cc4cccc5c4CN(C4CCC(=O)NC4=O)C5=S)CC3)c12 (stereo not drawn) [GT-08913, 3-(4-((4-(5-methylthieno[2,3-d]pyrimidin-4-yl)piperazin-1-yl)methyl)-1-thioxoisoindolin-2-yl)piperidine-2,6-dione] | – | – | – | – | – | – | 60 to 80 | 80 to 100 | B (80%< substrate protein remaining %≤ 100%) | B (80%< substrate protein remaining %≤ 100%) | B (80%< substrate protein remaining %≤ 100%) | B (80%< substrate protein remaining %≤ 100%) | A (0% ≤ substrate protein remaining % ≤ 80%) | B (80%< substrate protein remaining %≤ 100%) |
